Reference: patent US20240228489A1, “POSITIVE ALLOSTERIC MODULATORS OF THE MUSCARINIC ACETYLCHOLINE RECEPTOR M1” (Vanderbilt University, priority 2021, published 2024)

Tests used:
human mAChR M1 [1] = molecular target: T1, human mAChR M1 (Homo sapiens, UniProt P11229); assay: mAChR M1 cell-based functional assay (calcium mobilization), PAM mode: increase in the EC20 acetylcholine response
T1 sequence (P11229 1-460): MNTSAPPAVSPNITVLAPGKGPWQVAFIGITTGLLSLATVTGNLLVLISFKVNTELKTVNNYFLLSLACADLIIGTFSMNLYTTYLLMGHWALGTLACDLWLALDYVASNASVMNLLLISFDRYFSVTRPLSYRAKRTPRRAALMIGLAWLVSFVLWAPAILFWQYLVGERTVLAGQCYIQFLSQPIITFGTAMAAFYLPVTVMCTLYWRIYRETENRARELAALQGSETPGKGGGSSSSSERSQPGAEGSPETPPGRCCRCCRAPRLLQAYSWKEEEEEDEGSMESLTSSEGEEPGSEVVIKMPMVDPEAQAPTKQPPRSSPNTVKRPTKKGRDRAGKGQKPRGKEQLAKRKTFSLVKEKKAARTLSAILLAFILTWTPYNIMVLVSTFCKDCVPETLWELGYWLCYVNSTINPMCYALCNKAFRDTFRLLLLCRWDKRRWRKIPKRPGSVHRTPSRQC
Procedure, shortened: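 PAM readout is the concentration-dependent rise in the EC20 acetylcholine calcium signal, fitted to a four-parameter logistic (EC50, Emax). Compounds were preincubated from 4 s before ACh at 144 s (EC20) and 230 s (EC80). hM1-expressing CHO-K1 cells loaded with Fluo-4, FDSS ratio read.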

human mAChR M1 [2] = molecular target: T1, human mAChR M1; assay: mAChR M1 cell-based functional assay (calcium mobilization), agonist mode: compound alone, Emax relative to acetylcholine maximum; conditions: for Agonist Activity Human M1 EC50 / EC50: human mAChR M1; for Emax: relative to the maximum for acetylcholine
Procedure, shortened: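 Agonist activity is the concentration-dependent rise in intracellular calcium (Fluo-4, 1 Hz read) after compound addition, measured before any acetylcholine was added, in stable hM1 CHO-K1 cells. Curves were 11-point, 1:3 dilutions fitted by four-parameter logistic. Emax is given as a fraction of maximal acetylcholine response.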

EC50 (human mAChR M1 [1]) | Emax (human mAChR M1 [1]) | Agonist Activity Human M1 EC50 (human mAChR M1 [2]) | Emax (human mAChR M1 [2]) | EC50 (human mAChR M1 [2]) | Compound
1240 nM | 74% | Inactive | 2% |  | [2H]C1([2H])c2ncccc2C(=O)N1Cc1ccc(-c2cc(F)cc3nn(C)cc23)cc1C [Compound 84, 6-(4-(6-fluoro-2-methyl-2H-indazol-4-yl)-2-methylbenzyl)-6,7-dihydro-5H-pyrrolo[3,4-b]pyridin-5-one-7,7-d2]
654 nM | 51% | Inactive | 2% |  | [2H]C1([2H])c2ncccc2C(=O)N1Cc1c(F)cc(-c2cc(Cl)cc3nn(C([2H])([2H])[2H])cc23)cc1F [Compound 85, 6-(4-(6-chloro-2-(methyl-d3)-2H-indazol-4-yl)-2,6-difluorobenzyl)-6,7-dihydro-5H-pyrrolo[3,4-b]pyridin-5-one-7,7-d2]
237 nM | 46% | Inactive | 2% |  | [2H]C1([2H])c2ncccc2C(=O)N1Cc1c(F)cc(-c2cc(F)cc3nn(C([2H])([2H])[2H])cc23)cc1F [Compound 86, 6-(2,6-difluoro-4-(6-fluoro-2-(methyl-d3)-2H-indazol-4-yl)benzyl)-6,7-dihydro-5H-pyrrolo[3,4-b]pyridin-5-one-7,7-d2]
819 nM | 69% | Inactive | 11% |  | [2H]C([2H])([2H])Oc1cc(-c2cc(F)c(CN3C(=O)c4cccnc4C3([2H])[2H])c(F)c2)c2cn(C([2H])([2H])[2H])nc2c1 [Compound 87, 6-(2,6-difluoro-4-(6-(methoxy-d3)-2-(methyl-d3)-2H-indazol-4-yl)benzyl)-6,7-dihydro-5H-pyrrolo[3,4-b]pyridin-5-one-7,7-d2]
2700 nM | 37% | Inactive | 2% |  | [2H]C([2H])([2H])Oc1cc(-c2cc(F)c(CN3C(=O)c4cccnc4C3([2H])[2H])c(F)c2)c2cnn(C([2H])([2H])[2H])c2c1 [Compound 88, 6-(2,6-difluoro-4-(6-(methoxy-d3)-1-(methyl-d3)-1H-indazol-4-yl)benzyl)-6,7-dihydro-5H-pyrrolo[3,4-b]pyridin-5-one-7,7-d2]
88 nM | 46% | Inactive | 1% |  | [2H]C1([2H])c2ncccc2C(=O)N1Cc1c(F)cc(-c2cc(Cl)c3nn(C)cc3c2)cc1F [Compound 89, 6-(4-(7-chloro-2-methyl-2H-indazol-5-yl)-2,6-difluorobenzyl)-6,7-dihydro-5H-pyrrolo[3,4-b]pyridin-5-one-7,7-d2]
1700 nM | 72% | Inactive | 2% |  | [2H]C1([2H])c2ncccc2C(=O)N1Cc1c(F)cc(-c2cc(OC)cc3nn(C)cc23)cc1F [Compound 90, 6-(2,6-difluoro-4-(6-methoxy-2-methyl-2H-indazol-4-yl)benzyl)-6,7-dihydro-5H-pyrrolo[3,4-b]pyridin-5-one-7,7-d2]
718 nM | 84% |  | 22% | 7740 nM | [2H]C1([2H])c2ncccc2C(=O)N1Cc1c(F)cc(-c2cn(C)c(=O)c3nn(C([2H])([2H])[2H])cc23)cc1F [Compound 91, 4-(3,5-difluoro-4-((5-oxo-5,7-dihydro-6H-pyrrolo[3,4-b]pyridin-6-yl-7,7-d2)methyl)phenyl)-6-methyl-2-(methyl-d3)-2,6-dihydro-7H-pyrazolo[3,4-c]pyridin-7-one]
2400 nM | 54% | Inactive | 2% |  | [2H]C1([2H])c2ncccc2C(=O)N1Cc1c(F)cc(-c2cn(C)c(=O)c3c2cnn3C([2H])([2H])[2H])cc1F [Compound 92, 4-(3,5-difluoro-4-((5-oxo-5,7-dihydro-6H-pyrrolo[3,4-b]pyridin-6-yl-7,7-d2)methyl)phenyl)-6-methyl-1-(methyl-d3)-1,6-dihydro-7H-pyrazolo[3,4-c]pyridin-7-one]
131 nM | 76% |  | 21% | 3300 nM | [2H]C([2H])([2H])Oc1ccc(-c2cc(F)c(CN3C(=O)c4cccnc4C3([2H])[2H])c(F)c2)c2cn(C)nc12 [Compound 93, 6-(2,6-difluoro-4-(7-(methoxy-d3)-2-methyl-2H-indazol-4-yl)benzyl)-6,7-dihydro-5H-pyrrolo[3,4-b]pyridin-5-one-7,7-d2]
139 nM | 76% |  | 19% | 3540 nM | [2H]C([2H])([2H])Oc1ccc(-c2cc(F)c(CN3C(=O)c4cccnc4C3([2H])[2H])c(F)c2)c2cn(C([2H])([2H])[2H])nc12 [Compound 94, 6-(2,6-difluoro-4-(7-(methoxy-d3)-2-(methyl-d3)-2H-indazol-4-yl)benzyl)-6,7-dihydro-5H-pyrrolo[3,4-b]pyridin-5-one-7,7-d2]
1400 nM | 72% | Inactive | 3% |  | [2H]C([2H])([2H])Oc1ccc(-c2cc(F)c(CN3C(=O)c4cccnc4C3([2H])[2H])c(F)c2)c2cnn(C([2H])([2H])[2H])c12 [Compound 95, 6-(2,6-difluoro-4-(7-(methoxy-d3)-1-(methyl-d3)-1H-indazol-4-yl)benzyl)-6,7-dihydro-5H-pyrrolo[3,4-b]pyridin-5-one-7,7-d2]
211 nM | 80% |  | 26% | 7520 nM | [2H]C1([2H])c2ncccc2C(=O)N1Cc1c(F)cc(-c2ccc(OCC)c3nn(C)cc23)cc1F [Compound 96, 6-(4-(7-ethoxy-2-methyl-2H-indazol-4-yl)-2,6-difluorobenzyl)-6,7-dihydro-5H-pyrrolo[3,4-b]pyridin-5-one-7,7-d2]
164 nM | 88% |  | 25% | 5940 nM | [2H]C1([2H])c2ncccc2C(=O)N1Cc1c(F)cc(-c2ccc(OCC)c3nn(C([2H])([2H])[2H])cc23)cc1F [Compound 97, 6-(4-(7-ethoxy-2-(methyl-d3)-2H-indazol-4-yl)-2,6-difluorobenzyl)-6,7-dihydro-5H-pyrrolo[3,4-b]pyridin-5-one-7,7-d2]
286 nM | 76% |  | 21% | 8390 nM | [2H]C1([2H])c2ncccc2C(=O)N1Cc1c(F)cc(-c2ccc(OC(C)C)c3nn(C)cc23)cc1F [Compound 98, 6-(2,6-difluoro-4-(7-isopropoxy-2-methyl-2H-indazol-4-yl)benzyl)-6,7-dihydro-5H-pyrrolo[3,4-b]pyridin-5-one-7,7-d2]
285 nM | 83% |  | 25% | 5800 nM | [2H]C1([2H])c2ncccc2C(=O)N1Cc1c(F)cc(-c2ccc(OC(C)C)c3nn(C([2H])([2H])[2H])cc23)cc1F [Compound 99, 6-(2,6-difluoro-4-(7-isopropoxy-2-(methyl-d3)-2H-indazol-4-yl)benzyl)-6,7-dihydro-5H-pyrrolo[3,4-b]pyridin-5-one-7,7-d2]
214 nM | 85% | Inactive | 6% |  | [2H]C1([2H])c2ncccc2C(=O)N1Cc1c(F)cc(-c2ccc3nn(C([2H])([2H])[2H])cc3c2)cc1F [Compound 100, 6-(2,6-difluoro-4-(2-(methyl-d3)-2H-indazol-5-yl)benzyl)-6,7-dihydro-5H-pyrrolo[3,4-b]pyridin-5-one-7,7-d2]
1410 nM | 75% | Inactive | 3% |  | [2H]C1([2H])c2ncccc2C(=O)N1Cc1c(F)cc(-c2ccc3c(cnn3C([2H])([2H])[2H])c2)cc1F [Compound 101, 6-(2,6-difluoro-4-(1-(methyl-d3)-1H-indazol-5-yl)benzyl)-6,7-dihydro-5H-pyrrolo[3,4-b]pyridin-5-one-7,7-d2]
469 nM | 77% | Inactive | 9% |  | [2H]C1([2H])c2ncccc2C(=O)N1Cc1c(F)cc(-c2ccc(OC(F)F)c3nn(C)cc23)cc1F [Compound 102, 6-(4-(7-(difluoromethoxy)-2-methyl-2H-indazol-4-yl)-2,6-difluorobenzyl)-6,7-dihydro-5H-pyrrolo[3,4-b]pyridin-5-one-7,7-d2]
1550 nM | 73% | Inactive | 2% |  | [2H]C1([2H])c2ncccc2C(=O)N1Cc1c(F)cc(-c2ccc(OC(F)(F)F)c3nn(C)cc23)cc1F [Compound 103, 6-(2,6-difluoro-4-(2-methyl-7-(trifluoromethoxy)-2H-indazol-4-yl)benzyl)-6,7-dihydro-5H-pyrrolo[3,4-b]pyridin-5-one-7,7-d2]
1170 nM | 69% | Inactive | 2% |  | [2H]C1([2H])c2ncccc2C(=O)N1Cc1c(F)cc(-c2ccc(OC(F)(F)F)c3nn(C([2H])([2H])[2H])cc23)cc1F [Compound 104, 6-(2,6-difluoro-4-(2-(methyl-d3)-7-(trifluoromethoxy)-2H-indazol-4-yl)benzyl)-6,7-dihydro-5H-pyrrolo[3,4-b]pyridin-5-one-7,7-d2]
